Non-standard residues stand in square brackets, D forms with d. Residues, ends and D or L forms follow the SMILES beside them. *: point of attachment. Sta = CC(C)C[C@H](N)[C@@H](O)CC(=O)O; Cbz = O=C(OCc1ccccc1)*; Boc = CC(C)(C)OC(=O)*; Lac = C[C@H](O)C(=O)O; βAla = NCCC(=O)O; Sar = CNCC(=O)O
Assay: solubility in water of the isolated powder
Type: physicochemical
Conditions: lyophilised product

water solubility of the amorphous powder	Molecule
readily water-soluble	Z-Arg-Arg-Pro-Phe-His-Sta-Lac-His-NH2 [Example 22]
water-soluble	CC(C)C[C@H](NC(=O)[C@H](Cc1c[nH]cn1)NC(=O)[C@H](Cc1ccccc1)NC(=O)[C@@H]1CCCN1C(=O)[C@H](CCCNC(=N)N)NC(=O)[C@@H](N)CCCNC(=N)N)[C@@H](O)CC(=O)O[C@@H](C)C(=O)N[C@@H](Cc1c[nH]cn1)C(N)=O [Example 23, H-Arg-Arg-Pro-Phe-His-Sta-Lac-His-NH2] (H-RRPFH[Sta][Lac]H-NH2)
readily water-soluble	Cbz-RRPFH[Sta][Sar]HK(Boc)-OMe [Example 16]

The next lines start with the molecule.

Molecule	water solubility of the amorphous powder
CC(C)C[C@H](NC(=O)[C@H](Cc1c[nH]cn1)NC(=O)[C@H](Cc1ccccc1)NC(=O)[C@@H]1CCCN1C(=O)[C@H](Cc1c[nH]cn1)NC(=O)[C@@H]1CCCN1)[C@@H](O)CC(=O)N[C@H](C(=O)N[C@@H](Cc1ccc(O)cc1)C(=O)N[C@@H](CCCCN)C(=O)O)C(C)C [Example 1, H-Pro-His-Pro-Phe-His-Sta-Val-Tyr-Lys-OH×AcOH] (H-PHPFH[Sta]VYK-OH)	readily water-soluble
CC(C)C[C@H](NC(=O)[C@H](Cc1c[nH]cn1)NC(=O)[C@H](Cc1ccccc1)NC(=O)[C@@H]1CCCN1C(=O)[C@H](CCCNC(=N)N)NC(=O)[C@@H](N)CCCNC(=N)N)[C@@H](O)CC(=O)N(C)CC(=O)N[C@@H](Cc1c[nH]cn1)C(=O)N[C@@H](CCCCN)C(=O)O [Example 19, H-Arg-Arg-Pro-Phe-His-Sta-Sar-His-Lys-OH] (H-RRPFH[Sta][Sar]HK-OH)	readily water-soluble
Cbz-RRPFH[Sta][βAla]H-NH2 [Example 20]	water-soluble
